The source of these data is PMC10698726 (Molecular Pharmaceutics, 2023).

Usually inhibition stands for the relative decrease from the control value, in per cent. Usually IC50 stands for the concentration needed to halve the response being measured.

Series [1] addresses T1, OCT3 (Homo sapiens, UniProt O75751).
T1 construct: expressed in transfected cells; host or cells: HEK293
T1 sequence (O75751 1-556): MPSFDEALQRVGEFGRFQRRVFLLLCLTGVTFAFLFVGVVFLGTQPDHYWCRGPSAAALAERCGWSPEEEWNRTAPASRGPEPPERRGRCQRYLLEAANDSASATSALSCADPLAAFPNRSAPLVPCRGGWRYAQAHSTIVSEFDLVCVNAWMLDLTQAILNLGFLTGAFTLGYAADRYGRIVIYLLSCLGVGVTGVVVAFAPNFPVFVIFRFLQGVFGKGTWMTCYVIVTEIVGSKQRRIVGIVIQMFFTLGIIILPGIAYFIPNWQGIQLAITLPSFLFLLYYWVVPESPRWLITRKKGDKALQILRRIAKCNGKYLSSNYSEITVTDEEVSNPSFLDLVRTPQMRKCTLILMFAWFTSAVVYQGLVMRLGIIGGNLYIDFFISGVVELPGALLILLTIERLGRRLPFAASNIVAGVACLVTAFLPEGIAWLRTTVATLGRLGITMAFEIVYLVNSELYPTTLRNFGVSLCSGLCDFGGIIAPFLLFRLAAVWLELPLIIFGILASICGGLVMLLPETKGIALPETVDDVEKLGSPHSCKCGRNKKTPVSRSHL
The experiment in a line: Inhibition of model substrate uptake in OCT3-overexpressing HEK293 cells. The series is classed as cell-based. The note with it: for IC50: 2 μM ASP+ or ethambutol as model substrate. The gist of the method: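 IC50 values were fitted with a Hill equation from net uptake, calculated as uptake in overexpressing HEK293 cells minus empty-vector control uptake. Cells were exposed for 5 min to 2 μM model substrate alone, with 20 μM inhibitor, or with a concentration series. Uptake was quantified by ASP^+ fluorescence or LC–MS/MS after lysis in 80% acetonitrile.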

In series [2] the target is T1, OCT3. The experiment in a line: Concentration-dependent uptake of model substrates, OCT3-overexpressing HEK293 cells. The series is classed as in vitro ADME. Particulars: vmax over Km, this study. How it is done: Koepsell and Gorbulev (University of Würzburg, Germany).
Prior to inhibition studies, the used model substrates were validated in concentration-dependent uptake experiments if no literature data were available (Table S2 and Figures S2 and S3). Thereby, we ensured that the model substrate concentration used in the subsequent inhibition experiments was sufficiently below the Km value of its uptake kinetics. […] On the day of the experiment, the cells were washed once with prewarmed to 37 °C HBSS (Thermo Fisher Scientific, Darmstadt, Germany) supplemented with 10 mM HEPES and pH adjusted to 7.4 (Sigma-Aldrich)—hereafter termed HBSS+. For concentration-dependent experiments, the cells were incubated with increasing substrate concentrations for 2 min. Uptake was terminated by adding ice-cold HBSS+. Afterward, the cells were washed twice with ice-cold HBSS+, and cell lysis was done with 80% (v/v) acetonitrile (LGC Standards, Wesel, Germany) to which an internal standard for eventual LC–MS/MS analysis had been added. Intracellularly accumulated substrates were then quantified by LC–MS/MS analysis, and calibration was performed with known concentrations of the respective substances. All uptake data were normalized to the number of seeded cells by measuring the total protein content in radioimmunoprecipitation assay buffer-lysed cells in a bicinchoninic acid assay.[29]

The mark [3] stands for this setting: HEK293, 5 min, read-out: (S,S)-Ethambutol inhibition [%], OCT3, 20 μM inhibitor, 2 μM (S,S)-ethambutol, 5 min.
Where [4] appears, read: HEK293, OCT3, 20 μM inhibitor, 2 μM ASP+, 5 min, read-out: ASP+ inhibition [%].

Like-named read-outs stand apart in the source and are kept apart here.

On to `CCN(CC)CC#CCOC(=O)[C@](O)(c1ccccc1)C1CCCCC1` [(R)-Oxybutynine], for which the inhibition at 20 µM was 64.7% on OCT3 [1] (setting [3]) and 31.3% on OCT3 [1] (setting [4]). The compound also had a half-maximal inhibitory concentration (IC50) against OCT3 [1] (IC50, OCT3, Table S5, 5 min) of 65 µM. Further, the “Stereoselectivity (x-fold for the named isomer)” value on OCT3 [1] (OCT3, Table S5, ratio of the IC50 values of both isomers, label = isomer named in the cell (as a rule the one with the higher IC50)) was found to be 1.6 fold. Further, the “(S)-Zolmitriptan inhibition [%]” value at OCT3 [1] (OCT3, 20 μM inhibitor, 2 μM (S)-zolmitriptan, 5 min) is on record as 42.2%.

For `CCCN[C@H]1CCc2nc(N)sc2C1` [(S)-Pramipexole], the inhibition at 20 µM on OCT3 [1] (HEK293, 5 min, read-out: (S)-Zolmitriptan inhibition [%], OCT3, 20 μM inhibitor, 2 μM (S)-zolmitriptan, 5 min) amounted to 18.4%; on OCT3 [1] (setting [3]), 30.2%; at OCT3 [1] (setting [4]) it was 6.1%.

Consider `CN(C)CCc1c[nH]c2ccc(C[C@H]3COC(=O)N3)cc12` [(S)-Zolmitriptan], for which, on OCT3 [2], the “Clint ± SEM” value is recorded as 24.0. Further, the inhibition at 20 µM at OCT3 [1] (setting [3]) came out at 55%; at OCT3 [1] (setting [4]) it was 38.5%. Further, the concentration for half-maximal inhibition (IC50) on OCT3 [1] (OCT3, Table S5, 5 min, read-out: IC50) is 17.3 µM. For the same compound, on OCT3 [1] (OCT3, label = the more potent enantiomer), the “fold more potent in the inhibition of OCT3 than the respective counterpart” value is listed as 25 fold.
